The text below walks through data of patent US20130225629A1, “TARGETING PI3K/MTOR SIGNALLING AND NEUTROPHIL RECRUITMENT FOR TREATMENT OF ENTERITIS” (THE UNIVERSITY OF NORTH CAROLINA AT CHAPEL HILL, priority 2012, published 2013).

For test [1], the system named is C. jejuni. Briefly: FISH for C. jejuni in colon. In kind it is in vivo. As to conditions: AS252424-treated mice. The method, then:
Cy3-tagged 5′[…]3′ (SEQ ID NO: 1; Poppert et al., 2008) was used to probe the presence of C. jejuni. Deparaffinized, formalin-fixed 5 μm thick sections were incubated for 15 minutes in lysozyme (300,000 Units/ml lysozyme; Sigma-Aldrich, St. Louis, Mo., United States of America) buffer (25 mM Tris pH 7.5, 10 mM EDTA, 585 mM sucrose, and 0.3 mg/ml sodium taurocholate) at room temperature and hybridized overnight at 46° C. in hybridization chambers with the oligonucleotide probe (final concentration of 5 ng/μl in a solution of 30 percent formamide, 0.9 M sodium chloride, 20 mM Tris pH 7.5, and 0.01% sodium dodecyl sulfate). Tissue sections were washed for 20 minutes at 48° C. in washing buffer (0.9 M sodium chloride, 20 mM Tris pH 7.5) and once in distilled water for 10 seconds, dried at 46° C., mounted with DAPI mount media, and imaged using a Zeiss (Carl Zeiss, Thornwood, N.Y., United States of America) LSM710 Spectral Confocal Laser Scanning Microscope system with ZEN 2008 software. Acquired images were analyzed using BioimageXD. (Kankaanpaa et al., 2006). […]
Cy3-tagged 5′[…]3′ (SEQ ID NO: 1) was used to probe the presence of C. jejuni in the intestinal tissue sections as previously described (Sun et al., 2012). […] Acquired images were analyzed using BioimageXD (Kankaanpaa et al., 2006).

The subject of test [2] is C. jejuni. Briefly: C. jejuni induced colitis, histological intestinal inflammation score. The note with it: AS252424 10 mg/kg i.p. daily, 6 days, vs vehicle. In kind it is in vivo, mice. The source says:
All animal protocols were approved by the Institutional Animal Care and Use Committee of the University of North Carolina at Chapel Hill (Chapel Hill, N.C., United States of America). Germ-free 8 to 12 week old II10^−/−; NF-κBEGFP (129/SvEv; C57BL/6 mixed background) mice were transferred from germ-free isolators and immediately gavaged with 10^9 C. jejuni cfu/mouse (strain 81-176 (Korlath et al., 1985)). Mice were then housed under Specific Pathogen-Free (SPF) conditions and sacrificed at 5 or 12 days. […] Intestinal inflammation was scored by evaluating the degree of lamina propria immune cell infiltration, goblet cell depletion, architectural distortion, as well as crypt hyperplasia, ulceration, and abscesses using a score from 0-4. […] Cecal and colonic inflammation induced by S. typhimurium was evaluated using a score from 0-13 as described. […]
All animal protocols were approved by the Institutional Animal Care and Use Committee of the University of North Carolina at Chapel Hill (Chapel Hill, N.C., United States of America). […] Histological images were acquired using a DP71 camera and DP Controller 3.1.1.276 (Olympus, Center Valley, Pa., United States of America), and intestinal inflammation was scored on a scale of 0 to 4 as described before (Lippert et al., 2009; Sun et al., 2012). […]

`O=C1NC(=O)/C(=C/c2ccc(-c3ccc(F)cc3O)o2)S1` [AS252424]: the “C. jejuni in colon (FISH, confocal)” value in test [1] is “barely detectable”. Also, the C. jejuni-induced colitis entry in test [2] is “reduced”.
